The target in assay [1] is T1, Coagulation factor XII (Homo sapiens, UniProt P00748).
T1 sequence (P00748 whole entry): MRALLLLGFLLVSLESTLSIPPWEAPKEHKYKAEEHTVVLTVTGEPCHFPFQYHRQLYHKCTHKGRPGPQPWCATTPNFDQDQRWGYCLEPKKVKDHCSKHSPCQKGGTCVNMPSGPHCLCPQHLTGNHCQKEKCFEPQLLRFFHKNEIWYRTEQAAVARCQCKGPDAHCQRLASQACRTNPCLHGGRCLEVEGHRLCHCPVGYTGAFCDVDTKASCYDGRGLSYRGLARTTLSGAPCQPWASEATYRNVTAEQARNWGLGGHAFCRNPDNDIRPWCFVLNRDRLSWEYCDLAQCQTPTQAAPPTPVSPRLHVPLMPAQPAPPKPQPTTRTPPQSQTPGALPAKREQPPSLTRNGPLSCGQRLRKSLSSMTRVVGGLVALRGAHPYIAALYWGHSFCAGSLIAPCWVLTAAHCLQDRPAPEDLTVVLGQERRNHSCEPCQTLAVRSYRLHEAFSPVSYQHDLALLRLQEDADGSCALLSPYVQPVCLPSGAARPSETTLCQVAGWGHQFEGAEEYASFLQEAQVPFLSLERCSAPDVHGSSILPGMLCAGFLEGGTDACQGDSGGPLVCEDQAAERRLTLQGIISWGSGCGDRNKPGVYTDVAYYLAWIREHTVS
Kind of assay: FXIIa inhibitor potency, concentration-response, biochemical (AID 716). It is filed as functional.

Assay [2] concerns the target T2, Sphingosine 1-phosphate receptor 4 (Homo sapiens, UniProt O95977).
T2 sequence (O95977 whole entry): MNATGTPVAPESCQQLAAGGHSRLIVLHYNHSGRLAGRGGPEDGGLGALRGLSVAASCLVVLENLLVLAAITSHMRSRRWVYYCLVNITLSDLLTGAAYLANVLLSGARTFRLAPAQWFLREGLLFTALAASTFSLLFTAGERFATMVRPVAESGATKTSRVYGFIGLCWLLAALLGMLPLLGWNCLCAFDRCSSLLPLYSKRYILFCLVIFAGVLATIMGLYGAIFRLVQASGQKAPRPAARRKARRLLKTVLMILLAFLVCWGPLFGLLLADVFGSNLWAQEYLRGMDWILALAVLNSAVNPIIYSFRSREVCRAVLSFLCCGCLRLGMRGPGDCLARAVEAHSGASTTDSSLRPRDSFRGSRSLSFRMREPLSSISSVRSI
Kind of assay: Late-stage fluorescence dose response cell-based assay to identify agonists of the Sphingosine 1-Phosphate Receptor 4 (S1P4): purchased compounds EC50. [Related pubchem assays (depositor defined):AID1509, AID1523, AID1563, AID1686, AID1701, AID1801]. It counts as functional.

For assay [3], the target named is T3, Ubiquitin-conjugating enzyme E2 N (Homo sapiens, UniProt P61088).
T3 sequence (P61088 whole entry): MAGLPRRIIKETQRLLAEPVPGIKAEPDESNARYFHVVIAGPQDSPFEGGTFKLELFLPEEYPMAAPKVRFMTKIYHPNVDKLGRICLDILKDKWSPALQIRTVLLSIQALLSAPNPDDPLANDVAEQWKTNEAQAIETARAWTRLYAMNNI
It counts as functional.

Assay [4] concerns the target T3, Ubiquitin-conjugating enzyme E2 N. It counts as functional. This is another data set of the same source.
Another assay has as its target T4, Bcl-2-related protein A1 (Mus musculus, UniProt Q07440).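 Note: confirmatory dose–response counterscreen on Bfl-1, used to check hits from a UBC13 polyubiquitin inhibitor campaign.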
T4 sequence (Q07440 whole entry): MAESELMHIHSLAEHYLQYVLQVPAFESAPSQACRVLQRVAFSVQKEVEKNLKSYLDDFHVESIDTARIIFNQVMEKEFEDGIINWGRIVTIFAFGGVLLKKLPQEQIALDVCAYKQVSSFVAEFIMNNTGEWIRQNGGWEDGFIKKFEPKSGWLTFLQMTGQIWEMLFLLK
It is filed as functional.

Assay [5] concerns the target T1, Coagulation factor XII. It is filed as functional.
Assay [6] has as its target T5, E3 ubiquitin-protein ligase XIAP (Homo sapiens, UniProt P98170). The assay is described as follows: XIAP antagonists, biochemical, IAP family, fluorescence polarization (AID 1018). It is filed as functional. A general note: Fluorescence polarisation rises when a labelled molecule tumbles more slowly, as on binding a larger partner.
In assay [7] the target is T5, E3 ubiquitin-protein ligase XIAP. The assay is described as follows: Counter Screen using XIAP-Bir3 for Chemical Antagonists of Bir1/2 domains of IAP-family anti-apoptotic proteins. [Related pubchem assays (depositor defined):AID1018, AID1449, AID1514, AID1638, AID1749, AID1750, AID488957, AID488963].
In assay [8] the target is T6, Short transient receptor potential channel 4 (Mus musculus, UniProt Q9QUQ5).
T6 sequence (Q9QUQ5 whole entry): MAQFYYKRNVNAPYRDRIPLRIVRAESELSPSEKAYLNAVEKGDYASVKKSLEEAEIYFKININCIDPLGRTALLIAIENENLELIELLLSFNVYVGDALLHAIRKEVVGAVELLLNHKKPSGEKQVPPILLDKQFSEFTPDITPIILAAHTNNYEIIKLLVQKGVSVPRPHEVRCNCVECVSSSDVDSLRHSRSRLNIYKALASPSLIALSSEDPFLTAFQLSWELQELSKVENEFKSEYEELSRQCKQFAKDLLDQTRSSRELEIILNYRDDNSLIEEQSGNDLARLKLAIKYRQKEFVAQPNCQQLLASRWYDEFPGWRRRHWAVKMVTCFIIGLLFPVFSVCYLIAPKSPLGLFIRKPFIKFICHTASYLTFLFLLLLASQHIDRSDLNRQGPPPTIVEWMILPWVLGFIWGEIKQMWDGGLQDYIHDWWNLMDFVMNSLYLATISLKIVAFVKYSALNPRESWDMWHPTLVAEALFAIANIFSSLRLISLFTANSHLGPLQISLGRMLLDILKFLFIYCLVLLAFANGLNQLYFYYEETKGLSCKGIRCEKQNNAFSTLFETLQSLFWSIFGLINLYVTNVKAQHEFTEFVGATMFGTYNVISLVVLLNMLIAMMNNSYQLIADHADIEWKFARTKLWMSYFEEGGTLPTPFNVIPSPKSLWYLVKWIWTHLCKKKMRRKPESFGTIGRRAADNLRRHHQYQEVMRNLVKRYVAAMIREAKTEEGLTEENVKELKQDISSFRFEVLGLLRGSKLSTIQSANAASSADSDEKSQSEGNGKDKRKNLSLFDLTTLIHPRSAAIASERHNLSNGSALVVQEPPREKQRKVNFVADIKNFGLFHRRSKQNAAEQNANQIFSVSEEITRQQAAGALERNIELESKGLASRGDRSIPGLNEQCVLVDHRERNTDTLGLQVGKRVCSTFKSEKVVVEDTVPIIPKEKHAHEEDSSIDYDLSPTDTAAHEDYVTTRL
The assay is described as follows: mouse TRPC4 channel activators, dose response, cell-based, HEK293 TRPC4/mu-opioid, Fluo-4 calcium (AID 434937). It is filed as functional.

The next assay concerns the target Paired box protein Pax-8 (Homo sapiens, UniProt Q06710). Kind of assay: inhibitors of PAX8-driven TPO luciferase reporter, dose response, RMG-I cells, cherry-pick (AID 687027).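 Note: luciferase reporter driven by Pax8 target thyroperoxidase promoter measured by SteadyGlo luminescence.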 It counts as functional, cell-based. For orientation: Reporter assays use an easily measured gene product as a stand-in for the process of interest.
Another assay addresses T7, X-box-binding protein 1 (Homo sapiens, UniProt P17861).
T7 sequence (P17861 whole entry): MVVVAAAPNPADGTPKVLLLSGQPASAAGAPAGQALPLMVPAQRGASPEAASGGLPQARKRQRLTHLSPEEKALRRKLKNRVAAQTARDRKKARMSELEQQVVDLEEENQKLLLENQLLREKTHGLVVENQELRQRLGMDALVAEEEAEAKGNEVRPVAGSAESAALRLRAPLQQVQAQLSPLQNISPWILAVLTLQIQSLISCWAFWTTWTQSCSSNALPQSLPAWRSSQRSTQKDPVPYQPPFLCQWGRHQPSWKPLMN
It counts as functional, Cricetulus griseus.

The next assay concerns the target Phosphomannomutase 2 (Homo sapiens, UniProt O15305). Kind of assay: Counter screen SAR assay for PMM2 inhibitors via a fluorescence intensity assay. [Related pubchem assays (depositor defined):AID1545, AID1574]. On the technique in general: The purpose of a counterscreen is to sort out artefacts and off-target activity.
Assay [9] is described as follows: Luminescence Cell-Based Dose Response HTS to Identify Inhibitors of 5'UTR Stem-Loop Driven Prion Protein mRNA Translation in H4 Neuroglioblastoma Cells. [Related pubchem assays: 1827 (Project Summary), 1813 (Primary HTS)]. It counts as functional.
Assay [10] is described as follows: inhibitors of firefly luciferase expression or activity, dose response, H4 neuroglioma cells, luminescence (AID 1990). It counts as functional, cell-based.
Assay [11] in a line: inhibitors of SNCA 5'UTR-driven reporter translation, confirmation, H4 neuroglioma cells, luminescence (AID 1988). It counts as functional, cell-based.
In assay [12] the test system is Streptococcus sp. 'group A'. Kind of assay: growth inhibition of control SK(-) GAS strain, dose response, counter-screen for streptokinase expression inhibitor project, luminescence, kanamycin, BacTiterGlo, confirmation (AID 1900). It is filed as functional, organism-based.
The subject of a further assay is Streptococcus. The assay is described as follows: Group A Streptococcus viability loss, dose response, counter-screen for streptokinase expression inhibitor project, luminescence, BacTiterGlo (AID 1915).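 Note: potency for reduction of bacterial viability or growth.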 It is filed as functional, organism-based.
Assay [13] deals with Neurotensin receptor type 1 (Homo sapiens, UniProt P30989). It is filed as functional.
Neurotensin receptor type 1, sequence (P30989 whole entry): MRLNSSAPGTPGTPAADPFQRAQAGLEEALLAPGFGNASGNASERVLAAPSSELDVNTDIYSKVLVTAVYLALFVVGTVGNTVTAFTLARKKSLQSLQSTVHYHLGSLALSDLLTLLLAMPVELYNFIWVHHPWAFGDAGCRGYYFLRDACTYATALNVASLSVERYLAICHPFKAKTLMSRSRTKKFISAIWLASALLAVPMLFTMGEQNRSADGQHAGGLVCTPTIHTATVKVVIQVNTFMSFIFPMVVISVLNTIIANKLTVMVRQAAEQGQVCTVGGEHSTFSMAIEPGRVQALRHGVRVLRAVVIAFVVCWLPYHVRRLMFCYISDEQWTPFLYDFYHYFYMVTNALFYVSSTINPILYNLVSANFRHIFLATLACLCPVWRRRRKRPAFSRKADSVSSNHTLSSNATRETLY
Assay [14] can be described thus: cytotoxicity toward NIH3T3 fibroblasts, dose response, counter-screen, cell-based, ATP luminescence, mouse fibroblasts (AID 2010).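 Note: cells exposed to compound for about 90 hours before reading.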 It counts as functional.
The target of another assay is T8, Streptokinase A (Streptococcus pyogenes serotype M1, UniProt P10520).
T8 sequence (P10520 whole entry): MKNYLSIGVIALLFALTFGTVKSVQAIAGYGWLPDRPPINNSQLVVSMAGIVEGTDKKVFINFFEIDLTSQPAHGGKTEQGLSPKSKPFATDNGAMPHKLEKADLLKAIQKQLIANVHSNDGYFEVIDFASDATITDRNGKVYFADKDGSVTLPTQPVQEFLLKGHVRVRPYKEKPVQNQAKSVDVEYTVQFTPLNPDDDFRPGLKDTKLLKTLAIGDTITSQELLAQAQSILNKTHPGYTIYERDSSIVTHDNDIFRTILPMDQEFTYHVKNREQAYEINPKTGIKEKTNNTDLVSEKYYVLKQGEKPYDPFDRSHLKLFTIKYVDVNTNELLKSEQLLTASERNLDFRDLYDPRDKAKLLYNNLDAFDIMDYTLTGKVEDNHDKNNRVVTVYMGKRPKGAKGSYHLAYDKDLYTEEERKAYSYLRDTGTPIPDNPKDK
The assay is described as follows: S. pyogenes streptokinase expression inhibitors, potency, dose response, plasminogen activation absorbance, OD405 (AID 1914).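 Note: secreted streptokinase activity via plasminogen activation per viability signal from cell pellet.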 It counts as functional, Streptococcus pyogenes M1 GAS.

For a further assay, the target named is Melanocortin receptor 4 (Homo sapiens, UniProt P32245). It is filed as functional, cell-based.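 Note: Cell-based assay with luminescence read-out, confirmatory dose-response testing for agonist activity of biased ligands at MC4R; human U2OS cells with tagged receptor and beta-arrestin; potency of agonists that increase receptor coupling to beta-arrestin.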
Melanocortin receptor 4, sequence (P32245 whole entry): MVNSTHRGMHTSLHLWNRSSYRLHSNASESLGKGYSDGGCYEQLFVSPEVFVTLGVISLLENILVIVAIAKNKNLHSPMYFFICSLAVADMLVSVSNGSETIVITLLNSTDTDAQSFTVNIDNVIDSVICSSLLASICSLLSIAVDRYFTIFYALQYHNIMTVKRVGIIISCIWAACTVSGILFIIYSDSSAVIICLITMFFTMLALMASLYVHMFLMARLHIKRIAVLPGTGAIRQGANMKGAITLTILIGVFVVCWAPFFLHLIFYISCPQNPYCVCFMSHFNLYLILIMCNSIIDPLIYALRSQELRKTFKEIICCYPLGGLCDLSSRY
Assay [15] is described as follows: inhibitors of intracellular T. cruzi replication, confirmation, NIH3T3 host cells, beta-gal luminescence (AID 2044).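 Note: intracellular parasites grown in NIH/3T3 mouse fibroblasts as host cells; luminescent beta-galactosidase reporter signal from transgenic T. cruzi replicating inside host cells; inhibitors lower the luminescence signal.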 It is filed as functional, cell-based.
A further assay deals with Cytochrome P450 2D6 (Homo sapiens, UniProt P10635).
Cytochrome P450 2D6, sequence (P10635 whole entry): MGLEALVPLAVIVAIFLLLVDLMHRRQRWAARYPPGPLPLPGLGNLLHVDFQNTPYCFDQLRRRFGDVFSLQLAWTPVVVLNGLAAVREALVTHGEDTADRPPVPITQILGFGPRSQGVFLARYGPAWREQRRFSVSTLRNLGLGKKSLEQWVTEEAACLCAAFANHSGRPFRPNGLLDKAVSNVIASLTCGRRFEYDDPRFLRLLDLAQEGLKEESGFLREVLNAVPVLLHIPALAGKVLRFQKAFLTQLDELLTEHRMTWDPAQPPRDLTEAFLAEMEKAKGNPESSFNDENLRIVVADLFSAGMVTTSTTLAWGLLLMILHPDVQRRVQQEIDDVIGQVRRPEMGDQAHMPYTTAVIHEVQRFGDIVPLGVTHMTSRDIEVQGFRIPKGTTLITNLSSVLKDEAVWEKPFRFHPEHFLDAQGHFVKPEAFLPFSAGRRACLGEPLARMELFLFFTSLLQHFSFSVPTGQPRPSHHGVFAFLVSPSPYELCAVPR

Molecules are shown by their SMILES. Activity calls are given as the source filed them.
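Throughout, for Absolute IC50 (XBP1): confirmatory dose-response counter-screen serving a CHOP assay.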

T5 sequence (P98170 whole entry): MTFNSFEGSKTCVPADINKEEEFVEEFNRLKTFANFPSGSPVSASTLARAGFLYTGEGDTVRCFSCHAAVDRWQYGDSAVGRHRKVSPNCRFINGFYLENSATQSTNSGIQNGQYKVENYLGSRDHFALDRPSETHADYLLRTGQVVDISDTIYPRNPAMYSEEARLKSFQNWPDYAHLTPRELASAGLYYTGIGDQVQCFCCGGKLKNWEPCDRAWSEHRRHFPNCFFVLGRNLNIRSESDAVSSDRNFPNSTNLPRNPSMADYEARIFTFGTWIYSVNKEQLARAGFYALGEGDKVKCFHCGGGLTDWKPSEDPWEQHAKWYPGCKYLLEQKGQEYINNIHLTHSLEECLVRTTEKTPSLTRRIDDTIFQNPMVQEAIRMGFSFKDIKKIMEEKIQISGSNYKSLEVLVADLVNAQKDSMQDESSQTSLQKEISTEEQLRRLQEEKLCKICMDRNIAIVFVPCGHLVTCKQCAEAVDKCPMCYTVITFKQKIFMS
Phosphomannomutase 2, sequence (O15305 whole entry): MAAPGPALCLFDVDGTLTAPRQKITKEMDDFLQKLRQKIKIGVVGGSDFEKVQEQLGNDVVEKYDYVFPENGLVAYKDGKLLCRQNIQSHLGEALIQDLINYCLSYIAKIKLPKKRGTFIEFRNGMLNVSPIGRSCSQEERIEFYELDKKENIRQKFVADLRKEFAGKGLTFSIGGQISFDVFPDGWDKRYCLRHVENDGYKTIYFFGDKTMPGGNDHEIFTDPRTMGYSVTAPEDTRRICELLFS
Paired box protein Pax-8, sequence (Q06710 whole entry): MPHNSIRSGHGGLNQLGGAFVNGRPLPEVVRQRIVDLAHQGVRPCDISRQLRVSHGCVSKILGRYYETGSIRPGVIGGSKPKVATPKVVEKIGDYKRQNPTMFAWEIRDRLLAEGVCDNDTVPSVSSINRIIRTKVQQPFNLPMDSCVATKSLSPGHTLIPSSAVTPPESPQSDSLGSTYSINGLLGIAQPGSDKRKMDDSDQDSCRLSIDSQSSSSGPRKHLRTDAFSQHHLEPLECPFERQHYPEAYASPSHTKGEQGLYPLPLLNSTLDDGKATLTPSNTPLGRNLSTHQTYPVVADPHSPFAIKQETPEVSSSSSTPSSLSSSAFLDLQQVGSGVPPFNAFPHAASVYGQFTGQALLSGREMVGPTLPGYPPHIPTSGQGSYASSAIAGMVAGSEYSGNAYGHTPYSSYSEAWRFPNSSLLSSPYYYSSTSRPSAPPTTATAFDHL

On to `Cc1cc(N2CCCC2=O)cc(C)c1S(=O)(=O)NCCOc1ccccc1`, for which the IC50 at Coagulation factor XII [1] was > 50 µM (inactive).
For `Cc1nn(CC(C)C)c(Cl)c1C(=O)OC(C)C(=O)Nc1ccccc1` (configuration not stated), in assay [2], the EC50 is > 50 µM (inactive).
As for `CCOc1ccccc1NC(=O)CN1CCC(C(=O)c2ccc(F)cc2)CC1`, the IC50 in [3] was 13.8 µM (active); in [4], > 20 µM (inactive); on Bcl-2-related protein A1, > 20 µM (inactive).
Regarding `O=S(=O)(N1CCCCC1)N1CCN(c2ccccc2F)CC1`, on Coagulation factor XII [5], the IC50 was > 50 µM (inactive).
With `COc1ccc(OC)c(/C=N/NC(=O)c2ccc(Cn3cc([N+](=O)[O-])cn3)o2)c1`, the IC50 in assay [6] was > 100 µM (not active); in assay [7] it was > 100 µM (inactive).
Taken in the same sequence, the figures for `CC/N=C1\Cn2c(nc3scc(-c4ccccc4)c3c2=O)CN1CC` were > 100 µM (not active) and > 100 µM (inactive).
In the case of `CCOC(=O)c1ccc(NC(=O)NCCc2c[nH]cn2)cc1`, the EC50 in assay [8] is 0.133 µM (active).
With `COc1ccc(OCCOc2ccc(C)nc2[N+](=O)[O-])cc1`, in assay [2], the EC50 is > 50 µM (inactive).
`CCSc1nc(-c2ccccc2)nc(C(Cl)Cl)n1`: the AC50 on Paired box protein Pax-8 is 1.95 µM (active). The “Absolute IC50 (XBP1)” value on X-box-binding protein 1 is 10 µM. Also, the IC50 at Phosphomannomutase 2 is > 100 µM (inactive). Moreover, the EC50 in [9] was 5.98 µM (active); in assay [10], > 120 µM (not active); in assay [11] it was 1.11 µM (active).
With `CCOCCn1c(SCCCc2ccccc2)nc2c1c(=O)[nH]c(=O)n2C`, the IC50 on Coagulation factor XII [1] is > 50 µM (inactive).
For the compound `O=C1c2cccc3cccc(c23)C(=O)N1CC1CCN(CC(O)COc2ccc3ccccc3c2)CC1` (configuration not stated), the EC50 in assay [12] is 6.34 µM (active); with Streptococcus, 18.6 µM (active); in assay [13], 18.5 µM (active); in assay [14], > 60 µM (not active); at Streptokinase A it was 17.9 µM (inconclusive); on Melanocortin receptor 4 it was 6.31 µM (active). In addition, the EC50 in assay [15] was 1.65 µM (active). Besides, the IC50 in [3] was 15 µM (active); in assay [4], 7.69 µM (active); at Bcl-2-related protein A1, > 20 µM (inactive).
On to `O=C(c1sc2ccccc2c1Cl)N(Cc1ccccc1)C1CCS(=O)(=O)C1` (configuration not stated), for which the AC50 at Cytochrome P450 2D6 is 14.1 µM (inconclusive). Further, the EC50 in [8] is 3.35 µM (active).
For the compound `CC(=O)N1CCc2c(sc(NC(=O)C3CC3)c2-c2nc3ccccc3s2)C1`, on Coagulation factor XII [5], the half-inhibitory concentration (IC50) was 25.7 µM (active).

The term IC50 denotes the concentration at which inhibition is half-maximal. One may read the EC50 as the concentration that produces a half-maximal response. As a reminder, the AC50 is the concentration giving half of the maximal activity seen.
